In PMC11044963, “Probing the CRL4^DCAF12 interactions with MAGEA3 and CCT5 di-Glu C-terminal degrons” (PNAS Nexus, 2024):
“Also recorded” adds a separate entry of the source. Blank lines part the entries; values can stand above or below the substance they belong to. Where no end group is shown, it is not given here.

Columns and labels:
[1] = target: T1, DCAF12-DDB1 (Homo sapiens, UniProt Q16531+Q5T6F0); experiment: FP direct peptide binding, DDB1–DCAF12 complex; details: for Kd range, FP direct binding: DDB1–DCAF12, FITC-labeled peptide
T1 construct: Despite our attempts to express and purify the full-length (FL) DCAF12 in isolation; made in house; host or cells: Spodoptera frugiperda Sf9 (baculovirus co-expression)
From the text: (§1) To further characterize DCAF12 binding to MAGEA3 and CCT5 degrons, we developed a fluorescence polarization (FP)-based peptide binding and displacement assay in vitro. We designed small N-terminal fluorescein isothiocyanate (FITC)-labeled peptides harboring 11 C-terminal residues of MAGEA3 ([…]) and nine from CCT5 ([…]), both carrying the known -EE degron.
(§2) DCAF12 constructs were subcloned from Mammalian Gene Collection (MGC) stock BC063823 into baculovirus expression vector pFBOH-MHL. For co-expression with DCAF12, DDB1 (MGC stock […]) and DDA1 (MGC stock BC000615) were subcloned into pFBOH-LIC vector lacking any protein tags. For testing DDB1-FL direct binding to peptides on FP assay, the protein was expressed using pFBOH-MHL vector with His-tag. All protein constructs were expressed in Spodoptera frugiperda (Sf9), as previously described ([37]).
(§3) FP-binding assays were performed using 20 mM Tris pH 7.5, 150 mM NaCl, 5% glycerol, 0.5 mM TCEP, and 0.01% Triton buffer. All tested proteins were titrated from an initial 4 µM highest concentration, followed by a factor two serial dilution. N-terminally labeled FITC peptides ([…] for MAGEA3, […] for CCT5, and […] for H3K9A) binding to proteins was tested at 20 nM final concentration. The assay was incubated for 45 min at room temperature, and plates were read using BioTek Synergy 4 (BioTek) plate reader. Prior to displacement assay, proteins at binding Kd concentration were mixed with FITC peptides at 20 nM final concentration. Displacement was evaluated by using a titration curve of unlabeled peptide, with 40 µM as the highest concentration. Buffer, incubation time, and reading conditions followed FP-binding protocol. All FP analyses were performed in triplicates and, at least, two independent experiments. All Kd and KDISP values were calculated using GraphPad Prism version 9.0.

[2] = tested on: DCAF12 mutants K91A, K108A, R203A, R256A, R344A; experiment: NanoBRET with full-length proteins, DCAF12 mutants; format: cell-based, human; details: HEK293T cells; FL protein or degron as stated; DCAF12 mutations vs WT
From the text: Fig. 2. Conserved arginine and lysine residues near DCAF12 central channel participate in MAGEA3 binding in cells. A) DCAF12 electrostatic surface potential analysis showing negatively and positively charged residues colored in red and blue, respectively. On the left, DDB1 contacting surface of DCAF12. On the right, substrate contacting surface with positively charged residues—Arg203, Arg256, and Arg344—highlighted as sticks. Electrostatic potential is shown on a scale of −10 (red) kT/e to 10 (blue). B) Conservation analysis of DCAF12 showing high conservation of the same positively charged residues (represented as sticks) among homologous sequences. Residues were colored on a scale from variable/low conservation (dark teal) to high conservation (magenta). […]
(§4) HEK293T cells were plated in 96-well plates (2 × 10^4/well) and 4 h later transfected with 0.03 µg/well N-terminally HT-tagged DCAF12 (WT or mutants) or HT alone and 0.001 µg/well N-terminally NL-tagged CCT5 and MAGEA3 (FL or -EE degrons) using X-tremeGene HP transfection reagent (Roche), following the manufacturer's instructions. […] Four hours later, 10 µL of NanoBRET Nano-Glo Substrate solution (8 µL/mL Nano-Glo substrate (Promega) diluted in DMEM/F12 no phenol red, supplemented with 4% FBS, penicillin 100 U/mL, and streptomycin 100 µg/mL) was added, and the signal was read. […]

[3] = tested on: DCAF12; experiment: NanoBRET with full-length proteins, DCAF12; format: cell-based, human; details: HEK293T cells; FL protein
From the text: (§5) To further investigate the DCAF12 interaction with MAGEA3 and CCT5 in cells, we developed a NanoBRET assay, which measures the interaction of […] FL MEAGEA3/CCT5 or C-terminal peptide containing degron sequences ([…]/[…], respectively). When donor and acceptor proteins are in close proximity, the donor excites the acceptor, which then emits fluorescence, allowing for direct measurement of protein–protein interaction in cells.
as §4, with “read. Donor emission at 450 nm (filter: 450 nm/BP 80 nm) and acceptor emission at 618 nm (filter: 610 nm/LP) were measured within 10 min of substrate addition using CLARIOstar microplate reader (Mandel).” for “read.”

[4] = tested on: DCAF12 R203A/R244A; experiment: NanoBRET with -EE degrons, second DCAF12 double arginine mutant; format: cell-based, human; details: HEK293T cells; HT-tagged DCAF12 mutant, NL-tagged degron; vs WT
From the text: as §5
(§6) Therefore, we used site-directed mutagenesis to generate two DCAF12 mutants in the central pocket of the WDR domain: R203A/R256A and R203A/R244A. DCAF12 wild-type (WT) and mutant interactions with MAGEA3 and CCT5 degron peptides were tested in a NanoBRET proximity-based assay (Fig. 2C).
as §4

[5] = tested on: DCAF12 R203A/R256A; experiment: NanoBRET with -EE degrons, DCAF12 R203A/R256A mutant; format: cell-based, human; details: HEK293T cells; HT-tagged DCAF12 R203A/R256A, NL-tagged degron; vs WT
From the text: as §5, §6, §4

[6] = target: T2, DCAF12 (Δ1–78) (Homo sapiens, UniProt Q5T6F0); experiment: FP direct peptide binding, DCAF12 (Δ1–78); details: FITC-labeled peptide
T2 construct: DCAF12:79-453aa; His6-TEV site ([…]) (N); made in house; host or cells: Spodoptera frugiperda Sf9 (baculovirus)
From the text: as §1, §2
FP-binding assays were performed using 20 mM Tris pH 7.5, 150 mM NaCl, 5% glycerol, 0.5 mM TCEP, and 0.01% Triton buffer. […] The assay was incubated for 45 min at room temperature, and plates were read using BioTek Synergy 4 (BioTek) plate reader. […] Displacement was evaluated by using a titration curve of unlabeled peptide, with 40 µM as the highest concentration. Buffer, incubation time, and reading conditions followed FP-binding protocol. […] All Kd and KDISP values were calculated using GraphPad Prism version 9.0.

[7] = target: T3, DCAF12-DDB1-DDA1 (Homo sapiens, UniProt Q16531+Q5T6F0+Q9BW61); experiment: FP direct peptide binding, DDB1–DCAF12–DDA1 complex; details: for Kd range, FP direct binding: DDB1–DCAF12–DDA1, FITC-labeled peptide
T3 construct: Despite our attempts to express and purify the full-length (FL) DCAF12 in isolation; made in house; host or cells: Spodoptera frugiperda Sf9 (baculovirus co-expression)
From the text: as §1, §2, §3

[8] = target: T4, biotinylated DCAF12 (Δ1–78) (Homo sapiens, UniProt Q5T6F0); experiment: SPR peptide binding, biotinylated DCAF12 (Δ1–78); details: unlabeled peptide, 15 °C, 1:1 Langmuir; for koff: dissociation phase 200 s; for koff / kon: HEPES pH 7.4, 2% DMSO, Fig. 1D, E; for kon: injected 120 s at 30 μL/min
T4 construct: DCAF12:79-453aa; His6 with linker ([…]) (C); made in house; host or cells: Sf9 cells (baculovirus, pFBD-BirA vector)
Description: For SPR experiments, DCAF12 Δ1–78 sequence was subcloned into pFBD-BirA vector, expressed in sf9 cells, and purified as described (Table S2). Biotinylated DCAF12 (Δ1–78) was immobilized to a level of ∼3,200 RU on a Biacore Series S streptavidin chip (Cytiva BR100531) using a Biacore 8K+ (Cytiva). Experiments were performed in a running buffer of 10 mM 4-(2-hydroxyethyl)-1-piperazineethanesulfonic acid (HEPES), pH 7.4, 150 mM NaCl (Cytiva BR-1006-70), 3 mM EDTA (Corning 46-034-CI), 0.005% P20 (Cytiva BR-1000-54), 5% Glycerol (Sigma G5516-1L), and 2% DMSO (Millipore Sigma MX1457-6). CCT5 and MAGEA3 peptides were injected over a period of 120 s at 30 μL/min followed by a dissociation phase of 200 s in an 8-point 2-fold dilution series with a top concentration of 1 μM. All steps were carried out at 15 °C. Reference and buffer-blank subtracted data were analyzed with the Biacore 8K Evaluation Software and fit to a 1:1 Langmuir model to obtain binding kinetics and KD values.

- FP binding of control peptide lacking -EE ([1]; FITC-labeled peptide 20 nM, protein up to 4 µM, Tris pH 7.5, 45 min, room temperature, DCAF12-DDB1 complex per Fig. S2): did not show any binding
Substance: ARTKQTARASTGGK [H3K9A, reference compound]

Substance: CCT5-FL: full-length T-complex protein 1 subunit epsilon protein
- effect of DCAF12 mutations on interaction, NanoBRET [2]: no changes were observed; also recorded: little to no effect
- BRET signal over negative control [3]: 3.6 fold
- engagement with DCAF12 in cells, NanoBRET [3]: low engagement

Substance: IRKPGESEE [CCT5 degron]
- effect of DCAF12 mutation on interaction with degron, NanoBRET [4]: significantly decreased
- effect of DCAF12 mutation on interaction with degron, NanoBRET [5]: significantly decreased

Substance: IRKPGESEE [CCT5]
- Kd range, FP direct binding [6]: nanomolar range
- Kd range, FP direct binding [7]: nanomolar range
- Kd ([8]; 8-point 2-fold dilution from 1 μM, 10 mM HEPES pH 7.4, 150 mM NaCl, 3 mM EDTA, 0.005% P20, 5% glycerol, 2% DMSO, Table S1): 60 nM
- koff [8]: 0.017 s⁻¹
- kon [8]: 290000 M⁻¹ s⁻¹
- Kd range, FP direct binding [1]: nanomolar range

Substance: LHEWVLREGEE [MAGEA3 degron]
- effect of DCAF12 mutation on interaction with degron, NanoBRET [4]: significantly decreased
- effect of DCAF12 mutation on interaction with degron, NanoBRET [5]: significantly decreased

Substance: LHEWVLREGEE [MAGEA3]
- Kd range, FP direct binding [6]: nanomolar range
- Kd range, FP direct binding [7]: nanomolar range
- Kd ([7]; FITC-labeled peptide 20 nM, protein 2-fold dilution from 4 µM, 20 mM Tris pH 7.5, 150 mM NaCl, 5% glycerol, 0.5 mM TCEP, 0.01% Triton, 45 min, room temperature, triplicates, at least two independent experiments): 60 nM
- koff [8]: 0.06 s⁻¹
- kon [8]: 370000 M⁻¹ s⁻¹
- Kd range, FP direct binding [1]: nanomolar range
